Measurements reported in patent publication US20130023563A1, “AMIDINOANILINE DERIVATIVE” (AJINOMOTO CO., INC., priority 2010, published 2013).
Where a name gives a salt, the structure may show the parent alone.

Experiments:
Type in all cases: biochemical
FXa = FXa (Homo sapiens, UniProt P00742); assay: Measurement of inhibitory activity against activated factor X (chromogenic substrate S-2222); conditions: 0.015 U/ml FXa, 0.2 mM S-2222, absorbance 405 nm; read-out: FXa (pIC50) (converted)
Experimental: Experimental Example 1 Measurement of Inhibitory Activity Against Activated Factor X Activity
(§1) Using a 96-well plate (#3396, Costar), 100 mM Tris-HC1 buffer (130 μL) containing 0.02% Tween 20, 0.1% PEG6000 and 0.2M NaCl was admixed with 0.015 U/ml FXa (10 μL) and a test compound (10 μL) for 10 min and a color developing substrate 0.2 mM S-2222 (50 μL) was added. Using a microplate reader Benchmark Plus (BIO-RAD), the reaction rate was measured from the time course changes at absorbance 405 nm. Using the reaction rate of the control as 100%, the negative logarithmic value of the concentration that can suppress the reaction rate of the control by 50% was taken as the pIC50 value.

[1] = target: activated factor IIa (thrombin) (Homo sapiens, UniProt P00734); assay: Measurement of inhibitory activity against activated factor II (chromogenic substrate S-2238); conditions: 0.125 U/ml thrombin, 0.1 mM S-2238, absorbance 405 nm; read-out: FIIa (pIC50) (converted)
Experimental: Experimental Example 2 Measurement of Inhibitory Activity Against Activated Factor II (FIIa, Thrombin)
as §1, with “mM Tris-HCl” for “mM Tris-HC1”, “with 0.125” for “with 0.015”, “U/ml activated factor IIa (thrombin)” for “U/ml FXa”, “substrate 0.1” for “substrate 0.2”, “mM S-2238” for “mM S-2222”

human plasma = assay: Anti-blood coagulant activity, aPTT method, Sysmex Cs-2000i (Experimental Example 3-2); conditions: negative logarithmic value of the concentration that prolongs aPTT of the control 2 times
Experimental: Experimental Example 3-2 Measurement of Anti-Blood Coagulant Activity
An aPTT measurement method using totally automatic blood coagulation time measuring apparatus Sysmex Cs-2000i was used. A 10 mg/ml DDVP solution (DDVP standard product, Wako) (8 μL) and a test compound solution (40 μL) were placed in a sample tube (MS-18, Japan Medical Science), human plasma (standard human plasma for blood coagulation test, GCH-100A, Sysmex) (360 μL) was added and the mixture was used as a test sample. The test sample (50 μL) was incubated at 37° C. for 1 min, data fi APTT (rabbit brain-derived cephalin, DADE Behiring) (50 μL) was added, and the mixture was further incubated at 37° C. for 2 min. To the sample solution was added 0.02M calcium chloride (50 μL), and the time until plasma coagulation was automatically measured.
As the anti-blood coagulant activity, the negative logarithmic value of the concentration that prolongs aPTT of the control 2 times is shown as paPTT2.

FXa, sequence (P00742 235-488 limits assumed): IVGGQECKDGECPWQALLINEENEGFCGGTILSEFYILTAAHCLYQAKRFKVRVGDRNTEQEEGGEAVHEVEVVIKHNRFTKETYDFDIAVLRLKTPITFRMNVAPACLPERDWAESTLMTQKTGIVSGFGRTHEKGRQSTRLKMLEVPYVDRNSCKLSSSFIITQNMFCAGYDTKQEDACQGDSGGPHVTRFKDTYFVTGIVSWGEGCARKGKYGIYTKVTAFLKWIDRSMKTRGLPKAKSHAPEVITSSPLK
FXa, sequence (P00742 41-179 partner limits assumed): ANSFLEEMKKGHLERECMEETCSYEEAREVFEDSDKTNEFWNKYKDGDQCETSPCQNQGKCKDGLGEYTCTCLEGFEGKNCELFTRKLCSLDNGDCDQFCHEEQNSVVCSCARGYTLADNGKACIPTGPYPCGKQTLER

Row | IC50 (FXa) | IC50 [1] | Structure (SMILES) | paPTT2 (human plasma)
1 | 13.8 nM | 51300 nM | CC(=N)N1CCC(Oc2ccc(OC(=O)[C@H](CO)N(C)c3cccc(C(=N)N)c3)cc2)CC1 [compound of Ex. 42, 4-[(1-ethanimidoylpiperidin-4-yl)oxy]phenyl N-{3-[amino(imino)methyl]phenyl}-N-methyl-L-serinate 2 trifluoroacetate] | 6.64
2 | 2.95 nM | 2190 nM | CCCC[C@H](C(=O)Oc1ccc(OC2CCN(C(C)=N)CC2)cc1)N(C)c1cccc(C(=N)N)c1 [compound of Ex. 41, 4-[(1-ethanimidoylpiperidin-4-yl)oxy]phenyl N-{3-[amino(imino)methyl]phenyl}-N-methyl-L-norleucinate 2 trifluoroacetate] | 6.53
3 | 3.16 nM | 1740 nM | CCC[C@H](C(=O)Oc1ccc(OC2CCN(C(C)=N)CC2)cc1)N(C)c1cccc(C(=N)N)c1 [compound of Ex. 44, 4-[(1-ethanimidoylpiperidin-4-yl)oxy]phenyl N-{3-[amino(imino)methyl]phenyl}-N-methyl-L-norvalinate 2 trifluoroacetate] | 6.87
4 | 14.5 nM | 33100 nM | CC(=N)N1CCC(Oc2ccc(OC(=O)[C@H](C)N(C)c3cccc(C(=N)N)c3)cc2)CC1 [compound of Ex. 6, 4-[(1-ethanimidoylpiperidin-4-yl)oxy]phenyl N-{3-[amino(imino)methyl]phenyl}-N-methyl-L-alaninate 2 trifluoroacetate] | 6.81
5 | 21.4 nM | 33100 nM | CC(=N)N1CCC(Oc2ccc(OC(=O)[C@@H](C)N(C)c3cccc(C(=N)N)c3)cc2)CC1 [compound of Ex. 7, 4-[(1-ethanimidoylpiperidin-4-yl)oxy]phenyl N-{3-[amino(imino)methyl]phenyl}-N-methyl-D-alaninate 2 trifluoroacetate] | 6.85
6 | 5.37 nM | 6920 nM | CC(=N)N1CCC(Oc2ccc(OC(=O)c3cc(C(F)(F)F)nn3-c3cccc(C(=N)N)c3)cc2)CC1 [compound of Ex. 57, 4-[(1-ethanimidoylpiperidin-4-yl)oxy]phenyl 1-{3-[amino(imino)methyl]phenyl}-3-(trifluoromethyl)-1H-pyrazole-5-carboxylate 2 trifluoroacetate] | 
7 | 8.13 nM | 13200 nM | CCC(C)[C@@H](C(=O)Oc1ccc(C(=N)N2CCCC2)cc1)N(C)c1cccc(C(=N)N)c1 (stereo partly drawn) [compound of Ex. 33, 4-[imino(pyrrolidin-1-yl)methyl]phenyl N-{3-[amino(imino)methyl]phenyl}-N-methyl-L-isoleucinate 2 trifluoroacetate] | 6.80
8 | 31.6 nM | 7080 nM | COc1cc(C(=N)N2CCCC2)ccc1OC(=O)[C@H](C)N(C)c1cccc(C(=N)N)c1 [compound of Ex. 36, 4-[imino(pyrrolidin-1-yl)methyl]-2-methoxyphenyl N-{3-[amino(imino)methyl]phenyl}-N-methyl-L-alaninate 2 trifluoroacetate] | 6.67
9 | 2.95 nM | 15500 nM | CN(c1cccc(C(=N)N)c1)[C@@H](Cc1ccccc1)C(=O)Oc1ccc(C(=N)N2CCCC2)cc1 [compound of Ex. 46, 4-[imino(pyrrolidin-1-yl)methyl]phenyl N-{3-[amino(imino)methyl]phenyl}-N-methyl-L-phenylalaninate 2 trifluoroacetate] | 6.87
10 | 30.9 nM | 14100 nM | CC(C)[C@@H](C(=O)Oc1ccc(C(=N)N2CCCC2)cc1)N(C)c1cccc(C(=N)N)c1 [compound of Ex. 28, 4-[imino(pyrrolidin-1-yl)methyl]phenyl N-{3-[amino(imino)methyl]phenyl}-N-methyl-L-valinate 2 trifluoroacetate] | 6.55

The next lines start with the compound.

Row | Structure (SMILES) | IC50 (FXa) | IC50 [1] | paPTT2 (human plasma)
11 | N=C(N)c1cccc(N2CCCC[C@@H]2C(=O)Oc2ccc(C(=N)N3CCCC3)nc2)c1 [compound of Ex. 50, 6-[imino(pyrrolidin-1-yl)methyl]pyridin-3-yl (2R)-1-{3-[amino(imino)methyl]phenyl}piperidine-2-carboxylate 2 trifluoroacetate] | 5.5 nM | 3630 nM | 6.66
12 | N=C(N)c1cccc(N2CCCC[C@@H]2C(=O)Oc2ccc(C(=N)N3CCCC3)cc2Cl)c1 [compound of Ex. 20, 2-chloro-4-[imino(pyrrolidin-1-yl)methyl]phenyl (2R)-1-{3-[amino(imino)methyl]phenyl}piperidine-2-carboxylate 2 trifluoroacetate] | 6.46 nM | 1200 nM | 6.93
13 | N=C(N)c1cccc(N2CCCC[C@@H]2C(=O)Oc2ccc(C(=N)N3CCCC3)cc2F)c1 [compound of Ex. 21, 2-fluoro-4-[imino(pyrrolidin-1-yl)methyl]phenyl (2R)-1-{3-[amino(imino)methyl]phenyl}piperidine-2-carboxylate 2 trifluoroacetate] | 5.13 nM | 1910 nM | 6.94
14 | N=C(N)c1cccc(N2C[C@H](O)C[C@H]2C(=O)Oc2ccc(C(=N)N3CCCC3)cc2)c1 [compound of Ex. 15, 4-[imino(pyrrolidin-1-yl)methyl]phenyl (4R)-1-[(3-[amino(imino)methyl]phenyl]-4-hydroxy-L-prolinate 2 trifluoroacetate] | 224 nM | 28200 nM | 5.68
15 | N=C(N)c1cccc(N2CCCC[C@@H]2C(=O)Oc2ccc(C(=N)N3CCCC3)cc2C(=O)O)c1 [compound of Ex. 52, 2-{[((2R)-1-{3-[amino(imino)methyl]phenyl}piperidin-2-yl)carbonyl]oxy}-5-[imino(pyrrolidin-1-yl)methyl]benzoic acid 2 trifluoroacetate] | 18.2 nM | > 100000 nM | 6.35
16 | COC(=O)c1cc(C(=N)N2CCCC2)ccc1OC(=O)[C@H]1CCCCN1c1cccc(C(=N)N)c1 [compound of Ex. 51, 4-[imino(pyrrolidin-1-yl)methyl]-2-(methoxycarbonyl)phenyl (2R)-1-{3-[amino(imino)methyl]phenyl}piperidine-2-carboxylate 2 trifluoroacetate] | 14.1 nM | 2240 nM | 6.79
17 | CCCC[C@@H](C(=O)Oc1ccc(C(=N)N2CCCC2)cc1OC)N(C)c1cccc(C(=N)N)c1 [compound of Ex. 43, 4-[imino(pyrrolidin-1-yl)methyl]-2-methoxyphenyl N-{3-[amino(imino)methyl]phenyl}-N-methyl-L-norleucinate 2 trifluoroacetate] | 3.09 nM | 977 nM | 6.90
18 | CCCC[C@@H](C(=O)Oc1ccc(C(=N)N2CCCC2)cc1C)N(C)c1cccc(C(=N)N)c1 [compound of Ex. 45, 4-[imino(pyrrolidin-1-yl)methyl]-2-methylphenyl N-{3-[amino(imino)methyl]phenyl}-N-methyl-L-norleucinate 2 trifluoroacetate] | 3.02 nM | 2570 nM | 6.71
19 | CCC(C)[C@H](C(=O)Oc1ccc(C(=N)N2CCCC2)cc1F)N(C)c1cccc(C(=N)N)c1 (stereo partly drawn) [compound of Ex. 39, 2-fluoro-4-[imino(pyrrolidin-1-yl)methyl]phenyl N-{3-[amino(imino)methyl]phenyl}-N-methyl-L-isoleucinate 2 trifluoroacetate] | 15.1 nM | 25700 nM | 6.50
